Data published in patent publication US12077503B2, “Substituted cyclic amides and their use as herbicides” (FMC CORPORATION, priority 2015, dated 2024).

Legend:
Format in all cases: in vivo
[1] = system: barnyardgrass (Echinochloa crus-galli); assay: Test G Post-Emergence Protocol; conditions: Echinochloa crus-galli, post-emergence, 312 h; for pest or weed control at 15.625 g/ha: 15.625 g ai/ha, evaluated after 13 days (100=total damage to plant; 0=no damage to plant), read-out: Barnyardgrass damage rating; for pest or weed control at 62.5 g/ha: 62.5 g ai/ha, read-out: Barnyardgrass damage rating (100=total damage to plant; 0=no damage to plant); for pest or weed control at 62.5 g/ha / pest or weed control at 250 g/ha: evaluated after 13 days; for pest or weed control at 250 g/ha: 250 g ai/ha, read-out: damage to plant, Barnyardgrass (100=total damage to plant; 0=no damage to plant)
Procedure, shortened: (§1)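 Foliar application was made 8 days after sowing, using an aqueous spray of the active in acetone/water (50:50) with 0.5% Tween 20, at doses of 15.625, 62.5 or 250 g/ha. Injury was assessed 13 days later, where 100 meant the plant was fully damaged.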

[2] = system: redroot pigweed (Amaranthus retroflexus); assay: Test G Post-Emergence Protocol; conditions: Amaranthus retroflexus, post-emergence, 312 h; for pest or weed control at 15.625 g/ha: 15.625 g ai/ha, evaluated after 13 days (100=total damage to plant; 0=no damage to plant), read-out: Pigweed, Redroot damage rating; for pest or weed control at 62.5 g/ha: 62.5 g ai/ha, read-out: Pigweed, Redroot damage rating (100=total damage to plant; 0=no damage to plant); for pest or weed control at 62.5 g/ha / pest or weed control at 250 g/ha: evaluated after 13 days; for pest or weed control at 250 g/ha: 250 g ai/ha, read-out: damage to plant, Pigweed, Redroot (100=total damage to plant; 0=no damage to plant)
Procedure, shortened: as §1

[3] = system: ivy-leaved morning glory (Ipomoea hederacea); assay: Test G Post-Emergence Protocol; conditions: Ipomoea, post-emergence, 312 h; for pest or weed control at 15.625 g/ha: 15.625 g ai/ha, evaluated after 13 days (100=total damage to plant; 0=no damage to plant), read-out: Morningglory, Ivy-leaved damage rating; for pest or weed control at 62.5 g/ha: 62.5 g ai/ha, read-out: Morningglory, Ivy-leaved damage rating (100=total damage to plant; 0=no damage to plant); for pest or weed control at 62.5 g/ha / pest or weed control at 250 g/ha: evaluated after 13 days; for pest or weed control at 250 g/ha: 250 g ai/ha, read-out: damage to plant, Morningglory, Ivy-leaved (100=total damage to plant; 0=no damage to plant)
Procedure, shortened: as §1

corn (Zea mays) [4] = assay: Test G Post-Emergence Protocol; conditions: Zea mays, post-emergence, 312 h; for plant injury at 15.625 g/ha: 15.625 g ai/ha, evaluated after 13 days (100=total damage to plant; 0=no damage to plant), read-out: Corn damage rating; for plant injury at 62.5 g/ha: 62.5 g ai/ha, read-out: Corn damage rating (100=total damage to plant; 0=no damage to plant); for plant injury at 62.5 g/ha / plant injury at 250 g/ha: evaluated after 13 days; for plant injury at 250 g/ha: 250 g ai/ha, read-out: damage to plant, Corn (100=total damage to plant; 0=no damage to plant)
Procedure, shortened: as §1

[5] = system: giant foxtail (Setaria faberi); assay: Test G Post-Emergence Protocol; conditions: Setaria faberi, post-emergence, 312 h; for pest or weed control at 15.625 g/ha: 15.625 g ai/ha, evaluated after 13 days (100=total damage to plant; 0=no damage to plant), read-out: Foxtail, Giant damage rating; for pest or weed control at 62.5 g/ha: 62.5 g ai/ha, read-out: Foxtail, Giant damage rating (100=total damage to plant; 0=no damage to plant); for pest or weed control at 62.5 g/ha / pest or weed control at 250 g/ha: evaluated after 13 days; for pest or weed control at 250 g/ha: 250 g ai/ha, read-out: damage to plant, Foxtail, Giant (100=total damage to plant; 0=no damage to plant)
Procedure, shortened: as §1

[6] = system: velvetleaf (Abutilon theophrasti); assay: Test G Post-Emergence Protocol; conditions: Abutilon theophrasti, post-emergence, 312 h; for pest or weed control at 15.625 g/ha: 15.625 g ai/ha, evaluated after 13 days (100=total damage to plant; 0=no damage to plant), read-out: Velvetleaf damage rating; for pest or weed control at 62.5 g/ha: 62.5 g ai/ha, read-out: Velvetleaf damage rating (100=total damage to plant; 0=no damage to plant); for pest or weed control at 62.5 g/ha / pest or weed control at 250 g/ha: evaluated after 13 days; for pest or weed control at 250 g/ha: 250 g ai/ha, read-out: damage to plant, Velvetleaf (100=total damage to plant; 0=no damage to plant)
Procedure, shortened: as §1

[7] = system: barnyardgrass (Echinochloa crus-galli); assay: Test G Pre-Emergence Protocol; conditions: Echinochloa crus-galli, pre-emergence, 312 h, evaluated after 13 days; for pest or weed control at 15.625 g/ha: 15.625 g ai/ha, read-out: Barnyard grass damage rating (100=total damage to plant; 0=no damage to plant); for pest or weed control at 62.5 g/ha: 62.5 g ai/ha, 100=total damage to plant, 0=no damage to plant, read-out: plant damage rating, Barnyardgrass; for pest or weed control at 250 g/ha: 250 g ai/ha, read-out: Barnyardgrass damage rating (100=total damage to plant; 0=no damage to plant)
Procedure, shortened: (§2)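 Seeds were sown in standard soil and kept one day in a glasshouse (24/16° C day/night, 14 h light, 65% humidity), then sprayed with compound in acetone/water (50:50) containing 0.5% Tween 20 at 15.625, 62.5 or 250 g/ha. Damage was scored after 13 days (0 = none, 100 = total).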

[8] = system: redroot pigweed (Amaranthus retroflexus); assay: Test G Pre-Emergence Protocol; conditions: Amaranthus retroflexus, pre-emergence, 312 h, evaluated after 13 days; for pest or weed control at 15.625 g/ha: 15.625 g ai/ha; for pest or weed control at 15.625 g/ha / pest or weed control at 250 g/ha: read-out: Pigweed, Redroot damage rating (100=total damage to plant; 0=no damage to plant); for pest or weed control at 62.5 g/ha: 62.5 g ai/ha, 100=total damage to plant, 0=no damage to plant, read-out: plant damage rating, Pigweed, Redroot; for pest or weed control at 250 g/ha: 250 g ai/ha
Procedure, shortened: as §2

[9] = system: ivy-leaved morning glory (Ipomoea hederacea); assay: Test G Pre-Emergence Protocol; conditions: Ipomoea, pre-emergence, 312 h, evaluated after 13 days; for pest or weed control at 15.625 g/ha: 15.625 g ai/ha, read-out: Morning-glory, Ivy-leaved damage rating (100=total damage to plant; 0=no damage to plant); for pest or weed control at 62.5 g/ha: 62.5 g ai/ha, 100=total damage to plant, 0=no damage to plant, read-out: plant damage rating, Morningglory, Ivy-leaved; for pest or weed control at 250 g/ha: 250 g ai/ha, read-out: Morningglory, Ivy-leaved damage rating (100=total damage to plant; 0=no damage to plant)
Procedure, shortened: as §2

corn (Zea mays) [10] = assay: Test G Pre-Emergence Protocol; conditions: Zea mays, pre-emergence, 312 h, evaluated after 13 days; for plant injury at 15.625 g/ha: 15.625 g ai/ha; for plant injury at 15.625 g/ha / plant injury at 250 g/ha: read-out: Corn damage rating (100=total damage to plant; 0=no damage to plant); for plant injury at 62.5 g/ha: 62.5 g ai/ha, 100=total damage to plant, 0=no damage to plant, read-out: plant damage rating, Corn; for plant injury at 250 g/ha: 250 g ai/ha
Procedure, shortened: as §2

[11] = system: giant foxtail (Setaria faberi); assay: Test G Pre-Emergence Protocol; conditions: Setaria faberi, pre-emergence, 312 h, evaluated after 13 days; for pest or weed control at 15.625 g/ha: 15.625 g ai/ha; for pest or weed control at 15.625 g/ha / pest or weed control at 250 g/ha: read-out: Foxtail, Giant damage rating (100=total damage to plant; 0=no damage to plant); for pest or weed control at 62.5 g/ha: 62.5 g ai/ha, 100=total damage to plant, 0=no damage to plant, read-out: plant damage rating, Foxtail, Giant; for pest or weed control at 250 g/ha: 250 g ai/ha
Procedure, shortened: as §2

[12] = system: velvetleaf (Abutilon theophrasti); assay: Test G Pre-Emergence Protocol; conditions: Abutilon theophrasti, pre-emergence, 312 h, evaluated after 13 days; for pest or weed control at 15.625 g/ha: 15.625 g ai/ha; for pest or weed control at 15.625 g/ha / pest or weed control at 250 g/ha: read-out: Velvetleaf damage rating (100=total damage to plant; 0=no damage to plant); for pest or weed control at 62.5 g/ha: 62.5 g ai/ha, 100=total damage to plant, 0=no damage to plant, read-out: plant damage rating, Velvetleaf; for pest or weed control at 250 g/ha: 250 g ai/ha
Procedure, shortened: as §2

Row | Structure (SMILES) | pest or weed control at 15.625 g/ha [1] [%] | pest or weed control at 62.5 g/ha [1] [%] | pest or weed control at 250 g/ha [1] [%] | pest or weed control at 15.625 g/ha [2] [%] | pest or weed control at 62.5 g/ha [2] [%] | pest or weed control at 250 g/ha [2] [%] | pest or weed control at 15.625 g/ha [3] [%] | pest or weed control at 62.5 g/ha [3] [%] | pest or weed control at 250 g/ha [3] [%] | plant injury at 15.625 g/ha (corn (Zea mays) [4]) [%] | plant injury at 62.5 g/ha (corn (Zea mays) [4]) [%] | plant injury at 250 g/ha (corn (Zea mays) [4]) [%] | pest or weed control at 15.625 g/ha [5] [%] | pest or weed control at 62.5 g/ha [5] [%] | pest or weed control at 250 g/ha [5] [%] | pest or weed control at 15.625 g/ha [6] [%] | pest or weed control at 62.5 g/ha [6] [%] | pest or weed control at 250 g/ha [6] [%] | pest or weed control at 15.625 g/ha [7] [%] | pest or weed control at 62.5 g/ha [7] [%] | also measured
1 | Cc1nc(NC(=O)[C@@H]2C(=O)N(C)C[C@H]2c2ccc(C(F)(F)F)cc2)ccc1F (racemic) [Compound 1613] | 0 | 20 | 60 | 0 | 50 | 60 | 0 | 0 | 0 | 0 | 0 | 0 | 20 | 70 | 80 | 0 | 20 | 30 | 0 | 0 | pest or weed control at 250 g/ha [7]: 70%; pest or weed control at 15.625 g/ha [8]: 0%; pest or weed control at 62.5 g/ha [8]: 0%; pest or weed control at 250 g/ha [8]: 10%; pest or weed control at 15.625 g/ha [9]: 0%; pest or weed control at 62.5 g/ha [9]: 0%; pest or weed control at 250 g/ha [9]: 0%; plant injury at 15.625 g/ha (corn (Zea mays) [10]): 0%; plant injury at 62.5 g/ha (corn (Zea mays) [10]): 0%; plant injury at 250 g/ha (corn (Zea mays) [10]): 0%; pest or weed control at 15.625 g/ha [11]: 0%; pest or weed control at 62.5 g/ha [11]: 50%; pest or weed control at 250 g/ha [11]: 90%; pest or weed control at 15.625 g/ha [12]: 0%; pest or weed control at 62.5 g/ha [12]: 0%; pest or weed control at 250 g/ha [12]: 10%
2 | CN1C[C@@H](c2ccc(C(F)(F)F)cc2)[C@H](C(=O)Nc2cc(O)nc(C(F)(F)F)n2)C1=O (racemic) [Compound 1614] | 0 | 0 | 0 | 0 | 0 | 80 | 0 | 0 | 0 | 0 | 0 | 0 | 0 | 0 | 0 | 0 | 0 | 20 | 0 | 0 | pest or weed control at 250 g/ha [7]: 0%; pest or weed control at 15.625 g/ha [8]: 0%; pest or weed control at 62.5 g/ha [8]: 0%; pest or weed control at 250 g/ha [8]: 80%; pest or weed control at 15.625 g/ha [9]: 0%; pest or weed control at 62.5 g/ha [9]: 0%; pest or weed control at 250 g/ha [9]: 0%; plant injury at 15.625 g/ha (corn (Zea mays) [10]): 0%; plant injury at 62.5 g/ha (corn (Zea mays) [10]): 0%; plant injury at 250 g/ha (corn (Zea mays) [10]): 0%; pest or weed control at 15.625 g/ha [11]: 0%; pest or weed control at 62.5 g/ha [11]: 0%; pest or weed control at 250 g/ha [11]: 0%; pest or weed control at 15.625 g/ha [12]: 0%; pest or weed control at 62.5 g/ha [12]: 0%; pest or weed control at 250 g/ha [12]: 70%
3 | Cc1c(Br)cccc1NC(=O)[C@@H]1C(=O)N(C)C[C@H]1c1ccc(C(F)(F)F)cc1 (racemic) [Compound 1619] | 0 | 10 | 70 | 0 | 20 | 50 | 0 | 10 | 30 | 0 | 0 | 10 | 0 | 60 | 70 | 0 | 0 | 0 | 0 | 0 | pest or weed control at 250 g/ha [7]: 10%; pest or weed control at 15.625 g/ha [8]: 0%; pest or weed control at 62.5 g/ha [8]: 0%; pest or weed control at 250 g/ha [8]: 20%; pest or weed control at 15.625 g/ha [9]: 0%; pest or weed control at 62.5 g/ha [9]: 0%; pest or weed control at 250 g/ha [9]: 10%; plant injury at 15.625 g/ha (corn (Zea mays) [10]): 0%; plant injury at 62.5 g/ha (corn (Zea mays) [10]): 0%; plant injury at 250 g/ha (corn (Zea mays) [10]): 0%; pest or weed control at 15.625 g/ha [11]: 0%; pest or weed control at 62.5 g/ha [11]: 0%; pest or weed control at 250 g/ha [11]: 70%; pest or weed control at 15.625 g/ha [12]: 0%; pest or weed control at 62.5 g/ha [12]: 0%; pest or weed control at 250 g/ha [12]: 10%
